From ChEMBL document CHEMBL4765385, “Synthesis and biological evaluation of β-lapachone-monastrol hybrids as potential anticancer agents” (Eur J Med Chem, 2020)
The source made the active and inactive calls. The calls are words filed in the database; no cut-off is given here.

What was measured:
HepG2 [1] = assay: Antiproliferative activity against human HepG2 cells measured after 48 hrs by MTT assay; conditions: HepG2, 48 h
NCI-H596 [2] = assay: Antiproliferative activity against human NCI-H596 cells measured after 48 hrs by MTT assay; type: functional, cell-based; conditions: NCI-H596, 48 h
A549 [3] = assay: Antiproliferative activity against human A549 cells measured after 48 hrs in presence of NQO1 inhibitor dicoumarol by MTT assay; type: functional, cell-based; conditions: A549, 48 h
L02 = assay: Cytotoxicity against human L02 cells measured after 48 hrs by MTT assay; type: cell-based; conditions: L02, 48 h
[4] = target: NAD(P)H dehydrogenase [quinone] 1 (Homo sapiens, UniProt P15559); assay: Substrate activity at recombinant human C-terminal His-tagged NQO1 (1 to 274 residues) expressed in Escherichia coli assessed as metabolic rate by measuring NADPH oxidation per micromol protein at 10 mmol/L measured at 5 secs interval for 1 min by UV-Visible Spectrophotometric method; type: ADME
A549 [5] = assay: cells; conditions: Homo sapiens, A549, 48 h
in vitro = conditions: human, L02 cells and A549 cells
HepG2 [6] = assay: Induction of reactive oxygen species production in human HepG2 cells at 5 uM measured after 5 hrs by DCFH-DA staining based flow cytometry; type: functional, cell-based
NCI-H596 [7] = assay: Induction of reactive oxygen species production in human NCI-H596 cells at 5 uM measured after 5 hrs by DCFH-DA staining based flow cytometry; type: functional, cell-based
HepG2 [8] = assay: Antitumor activity against human HepG2 cells xenografted in BALB/c athymic nude mouse assessed as tumor growth inhibition at 20 mg/kg, iv administered at 2 days interval 19 days by caliper method relative to control; type: functional; conditions: 456 h, time 19 day, read-out: TGI

SMILES	IC50 (HepG2 [1]) [nM]	IC50 (NCI-H596 [2]) [nM]	IC50 (A549 [3]) [nM]	Drug metabolism [4]	IC50 (A549 [5]) [nM]	IC50 (L02) [nM]	selectivity ratio (in vitro)	Activity (HepG2 [6])	Activity (NCI-H596 [7])	inhibition in vivo at 20 mg/kg (HepG2 [8]) [%]
O=C1C(=O)c2ccccc2C2=C1C(c1cccc(O)c1Cl)NC(=S)N2 (stereo unspecified)	1400	3090	1330	1273 micromol/min/micromol protein	1020	1640	1.61	–	–	–
COc1ccc2c(c1)C1=C(C(=O)C2=O)C(c2cccc(O)c2)NC(=S)N1 (stereo unspecified)	1570	2200	1190	997 micromol/min/micromol protein	300	1750	5.83	–	–	–
CC1(C)CCC2=C(O1)c1ccccc1C(=O)C2=O [LAPACHONE]	2830	5060	6000	–	3320	4540	1.37	Active	Active	67.4
O=C1C(=O)c2cccc(Br)c2C2=C1C(c1cccc(O)c1)NC(=S)N2 (stereo unspecified)	2890	1980	2020	2012 micromol/min/micromol protein	1940	1660	0.86	–	–	–
CCOC(=O)C1=C(C)NC(=S)NC1c1cccc(O)c1 (stereo unspecified) [MONASTROL]	–	–	–	Metabolite_Notdetected	–	–	–	–	–	–

More lines, in order of falling IC50 (NCI-H596 [2]), values ahead:

IC50 (HepG2 [1]) [nM]	IC50 (NCI-H596 [2]) [nM]	IC50 (A549 [3]) [nM]	Drug metabolism [4]	IC50 (A549 [5]) [nM]	SMILES	IC50 (L02) [nM]	selectivity ratio (in vitro)	Activity (HepG2 [6])	Activity (NCI-H596 [7])	inhibition in vivo at 20 mg/kg (HepG2 [8]) [%]
1580	1810	1410	734 micromol/min/micromol protein	640	O=C1C(=O)c2ccccc2C2=C1C(c1ccc(Cl)c(O)c1)NC(=S)N2 (stereo unspecified)	1580	2.47	–	–	–
1340	1580	1590	1513 micromol/min/micromol protein	870	O=C1C(=O)c2cc(F)ccc2C2=C1C(c1cccc(O)c1)NC(=S)N2 (stereo unspecified)	1490	1.71	–	–	–
1380	1560	1260	2398 micromol/min/micromol protein	950	O=C1C(=O)c2ccc(Cl)cc2C2=C1C(c1cccc(O)c1)NC(=S)N2 (stereo unspecified)	1680	1.77	–	–	–
–	1080	1200	–	1320	COc1cccc2c1C(=O)c1c(O)c3c(c(O)c1C2=O)C[C@@](O)(C(=O)CO)C[C@@H]3O[C@H]1C[C@H](N)[C@H](O)[C@H](C)O1 [DOXORUBICIN]	2180	–	–	–	–
